Laboratory results from patent US9642829B2, “Antifungal compound and uses thereof” (The University of Hong Kong, priority 2012, dated 2017).

What was measured:
[1] = system: C. albicans; test: Yeast-to-hypha (Y-H) transition inhibition under strong hyphal inducing conditions; assay type: cell-based, Candida albicans; parameters: Y-Hi (yeast-to-hypha inhibitory activity): unit: μg/ml
Text: A large collection of small molecule library was screened in search of inhibitors of yeast-to-hypha transition (Y—H) of C. albicans using 384-well plate-high throughout assays (HTS). […] After subsequent studies with robust Y—H inducing conditions, we herein report a novel small molecule SM21 (FIG. 1) with strong Y-Hi activity and antifungal-activity.
Several environmental conditions which are known to induce the hyphal formation of C. albicans such as serum, Lee's medium, Spider medium, temperature and 37° C. were used to test the ability of SM21 to inhibit Y—H transition. […] SM21 could act as a Y-Hi at a lower concentration of 0.025 μg/ml and 0.0.5 μg/ml for 10^4 cells/ml and 10^6 cells/ml of C. albicans, respectively. Chemical structure of SM21 is shown in (F)

[2] = system: C. neoformans; test: Antifungal susceptibility (MIC/MFC), CLSI criteria, reading after 72 h; assay type: cell-based, Cryptococcus neoformans; conditions: 0.5 McFarland inoculum (10^6 cells/ml)
Experimental: Antifungal activity of the small molecules was evaluated using USA standards, Clinical and Laboratory Standards Institute (CLSI) criteria. In brief, inocula from 24 h Candida cultures on Sabourauds's dextore agar were standardized to a turbidity equivalent of 0.5 McFarland standards at 520 nm with a spectrophotometer. The suspensions were further diluted in Rosewell Park Memorial Institute (RPMI) 1640 medium (Life technologies, New York, USA) to yield an inoculum concentration of approximately 0.5 1×10^3 to 2.5 1×10^3 cells/ml. Minimum inhibitory concentration (MIC) and minimum fungicidal concentration (MFC) assay was performed in 96-well plates (Iwaki, Tokyo, Japan) and each of the Candida species was exposed to a double dilution of SM21. Amphotericin B was used as a positive control. All the experiments were preformed three occasions with duplicates for all isolates. The plates were incubated at 35° C. for 48 h to evaluate MIC. In the case of Cryotococcus neoformans, reading were taken after 72 h. Aforementioned assay was performed for C. albicans ATCC 90028, C. albicans SC5314 and 10 C. albicans clinical isolates. Moreover, MIC/MFC determination was carried out for other fungal species such as C. glabrata, C. krusei, C. tropicalis, C. parapsilosis, C. neoformans, Aspergillus fumigates and Penicillium marneffei. […]

[3] = system: C. albicans; test: Dose-dependent assay of MIC/MFC at different cell densities; assay type: cell-based, Candida albicans; parameters: unit not given here
Experimental: Antifungal activity of the small molecules was evaluated using USA standards, Clinical and Laboratory Standards Institute (CLSI) criteria. In brief, inocula from 24 h Candida cultures on Sabourauds's dextore agar were standardized to a turbidity equivalent of 0.5 McFarland standards at 520 nm with a spectrophotometer. The suspensions were further diluted in Rosewell Park Memorial Institute (RPMI) 1640 medium (Life technologies, New York, USA) to yield an inoculum concentration of approximately 0.5 1×10^3 to 2.5 1×10^3 cells/ml. Minimum inhibitory concentration (MIC) and minimum fungicidal concentration (MFC) assay was performed in 96-well plates (Iwaki, Tokyo, Japan) and each of the Candida species was exposed to a double dilution of SM21. Amphotericin B was used as a positive control. All the experiments were preformed three occasions with duplicates for all isolates. The plates were incubated at 35° C. for 48 h to evaluate MIC. In the case of Cryotococcus neoformans, reading were taken after 72 h. Aforementioned assay was performed for C. albicans ATCC 90028, C. albicans SC5314 and 10 C. albicans clinical isolates. Moreover, MIC/MFC determination was carried out for other fungal species such as C. glabrata, C. krusei, C. tropicalis, C. parapsilosis, C. neoformans, Aspergillus fumigates and Penicillium marneffei. […] Next using dose-dependent assay we tested that MIC/MFC of SM21 from 10^3 cells/ml to 10^7 cells/ml of C. albicans (Table 2). Each of the foregoing experiment was repeated on three different occasions.

[4] = system: C. tropicalis drug resistant isolates; test: Susceptibility of multidrug resistant clinical isolates, CLSI M27A broth microdilution; assay type: cell-based, Candida tropicalis; conditions: resistant to Itraconazole
Text: Oral Biosciences laboratory has one of the largest collections of fungal isolates, particular that of Candida species in the world. In our previous studies, we have found multidrug resistant clinical isolates of Candida species against existing antifungals. In particular, some of these strains are resistant to best antifungal agents to date such as caspofungin, amphotericin B and fluconazole. Therefore, we performed antifungal susceptibility testing for SM21 against these drug resistant Candida isolates suing CLSI M27A brothmicrodultion assay and CLSI M44-A disc diffusion assay.

`CN(C)c1ccc(/C=C/c2cc(C(C)(C)C)[o+]c(C(C)(C)C)c2)cc1.[O-][Cl+3]([O-])([O-])[O-]` [SM21] was tested, and the “Concentration acting as Y-Hi” value ([1]; 10^4 cells/ml of C. albicans) was 0.025 µg/mL, the “Y-Hi (yeast-to-hypha inhibitory activity)” value ([1]; C. albicans 10^4 cells/ml) was 0.025 and the “Y-Hi (yeast-to-hypha inhibitory activity)” value ([1]; C. albicans 10^5 cells/ml) was 0.5. For the same compound, the “Y-Hi (yeast-to-hypha inhibitory activity)” value ([1]; C. albicans 10^6 cells/ml) was 0.1, the “Y-Hi (yeast-to-hypha inhibitory activity)” value ([1]; C. albicans 10^7 cells/ml) was 0.2 and the “Morphology of C. albicans under hyphal inducing conditions” value ([1]; incubated with SM21 at Y-Hi concentration, serum, Lee's medium, Spider medium, 37° C.) was “yeast morphology”. The “Susceptibility (MIC90)” value [2] was 0.4 µg/mL, the MIC/MFC ([3]; C. albicans 10^4 cells/ml) was 0.1 and the MIC/MFC ([3]; C. albicans 10^5 cells/ml) was 0.1. The MIC/MFC ([3]; C. albicans 10^6 cells/ml) was 0.2, the MIC/MFC ([3]; C. albicans 10^7 cells/ml) was 0.6 and the MIC ([4]; C. tropicalis T789) was 1 µg/mL. For the same compound, the MIC ([4]; C. tropicalis T1148) was 0.5 µg/mL and the MIC ([4]; C. tropicalis T1427) was 1 µg/mL.
